Measurements reported in patent US12077503B2, “Substituted cyclic amides and their use as herbicides” (FMC CORPORATION, priority 2015, dated 2024).

## CSc1ccccc1NC(=O)[C@H]1C(=O)NC[C@@H]1c1ccc(C(F)(F)F)cn1 [Compound 1050]
  melting point: 66 to 70 °C

## O=C1NC[C@H](c2cc(Cl)cc(Cl)c2)[C@H]1C(=O)Nc1cccc(F)c1F [Compound 1273]
  melting point: 136 to 140 °C

## COc1ccc([C@H]2CN(C)C(=O)[C@@H]2C(=O)Nc2ccccc2F)cc1 [Compound 1342]
  melting point: 103 to 107 °C

## CN1C[C@H](c2cc(Cl)cc(Cl)c2)[C@@H](C(=O)Nc2cccc(F)c2F)C1=O [Compound 1270]
  melting point: 88 to 92 °C

## CN1C[C@H](c2ccc(C(F)(F)F)cn2)[C@@H](C(=O)Nc2cccc(F)c2F)C1=O [Compound 1052]
  melting point: 120 to 124 °C

## CN1C[C@H](c2ccc(C(F)(F)F)cc2)[C@@H](C(=O)Nc2ccccc2Br)C1=O [Compound 943]
  melting point: 104 to 107 °C
